This note sets out measurements from patent US20230416245A1, “ADENOSINE ANALOGS FOR THE TREATMENT OF DISEASE” (BIOINTERVENE, INC., priority 2020, published 2023).

For one assay, the target named is ADORA3 (Homo sapiens (Human), UniProt P0DMS8). Nature of the assay: Intracellular calcium release assay (FLIPR). The format is cell-based. The note with it: for EC50: CHO-K1 cells, Fluo-4, top concentration 10 μM, read-out: Cell Calcium Assay EC50; for Cell Calcium Efficacy (%): percentage of the response to NECA. The procedure: Example 32: Intracellular Calcium Release Assay
Sequence of ADORA3 (P0DMS8 whole entry): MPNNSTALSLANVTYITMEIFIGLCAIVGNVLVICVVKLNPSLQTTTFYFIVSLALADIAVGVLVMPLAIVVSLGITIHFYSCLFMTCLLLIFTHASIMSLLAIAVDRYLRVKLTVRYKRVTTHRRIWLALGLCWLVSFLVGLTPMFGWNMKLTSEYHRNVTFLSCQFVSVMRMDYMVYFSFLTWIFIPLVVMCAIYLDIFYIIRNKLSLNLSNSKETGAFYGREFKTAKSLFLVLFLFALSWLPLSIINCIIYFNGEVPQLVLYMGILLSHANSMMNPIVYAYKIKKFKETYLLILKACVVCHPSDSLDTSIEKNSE
Cell Culture: The table below lists the cell lines used that stably express the 4 subtypes of adenosine receptors, along with the growth medium used for each:
For experiments with the ADORA1- and ADORA3-expressing cells, the medium was aspirated and the cells washed twice with 10 mL DPBS. Two mL of trypsin was added and incubated at 37° C. for 1 minute. Then 10 mL of platting media was added to terminate the digestion and 1 mL of the solution was taken out for cell counting. ADORA2A- and ADORA2B-expressing cells were thawed rapidly in a 37° C. water bath. Cell suspensions were transferred to 50 mL conical tubes. Plating media was added to the 10 mL mark and then 1 mL taken out for cell counting. The 50 mL tubes containing the various types of cells were centrifuged at 1000 g. Then the supernatants were aspirated, being careful not to aspirate the cells. The cell pellets were resuspended in 3-5 mL platting media, then 0.5 mL was taken out for cell counting. Then the cell suspension was diluted to 1×10^6 cells/mL (20,000 cells per 20 μL per well) in platting medium, and cells were seeded into 384-well cell plates (Greiner-781946). The 384-well cell plate was placed in a 37° C./5% CO2 incubator (Thermo-371, Thermo Scientific) for 16-20 hours.
Preparation of the intracellular calcium imaging agent (Fluo-4 Direct™ Calcium Assay Kit, Invitrogen-F10471, Thermo Scientific): One mL of FLIPR Assay Buffer was added to 77 mg probenecid to make a 250 mM solution, which was used fresh for each day. One vial of Fluo-4 Direct™ crystals was thawed and 10 mL of FLIPR Assay Buffer was added to the vial. 0.2 mL of probenecid was added to each 10 mL vial of Fluo-Direct™ solution, such that the final assay concentration was 2.5 mM. It was vortexed, left to stand >5 min and protected from light. The dye was prepared fresh each day.
Compound Preparation: Compound plates were prepared as follows. First, the test compound was diluted to prepare a 2 mM solution and then 10-point 3-fold serial dilutions were made using ECHO (ECHO 555, LabCyte), then 900 nL was transferred to the compound plate. For all targets, the final top concentration of the test compound was […]. For agonist reference compounds, 10-point and 3-fold serial dilutions were made, then 900 nL was transferred to the assay plate. Then 30 μL of assay buffer was added to the compound plate and then the plate was centrifuged at 1000 rpm for 1 min.
FLIPR Assay: Cell plates were removed from the incubator, to which were added 20 μL 2×Fluo-4 Direct™ solution, then the plates were reincubated in a 5% CO2, 37° C. incubator for 50 min and at RT for 10 min. To run the protocol on the Fluorescent Imaging Plate Reader (FLIPR) TETRA (MD-FT0249, Molecular Devices, Inc.), 10 μL of assay buffer was transferred from the 384-well plate (Greiner-781280) to the cell plates and then the fluorescence signal was read. Then 10 μL of compound solution was transferred from the compound plate to the cell plates and the fluorescence signal was read. The “Max-Min” was calculated, starting from Read 91 to the maximum allowed. For agonists, activation %=(RLU−LC)/(HC−LC)*100, based on the following: RLU=relative light unit, 91 to maximum allowed signal; HC=average signal of the high concentration of agonist; LC=average signal of DMSO well. The data were fitted using GraphPad Prism 5, using the model “log(agonist) vs. response—Variable slope” to determine the EC50 value. The receptor efficacy of the test compound relative to the agonist NECA was calculated as a percentage (%) of the response to […]. Table 10 includes EC50 values for compounds described herein.

Assay [1] concerns the target human adenosine A3 receptor (Homo sapiens (Human), UniProt P0DMS8). Put plainly: Adenosine receptor binding assay ([125I]-AB-MECA competition). The note with it: inhibition of 0.15 nM [125I]-AB-MECA binding, membranes of cells expressing human A3 receptor; read-out: hA3 Ki: Ki. The source says: Example 30: Adenosine Receptor Binding Assay
Materials and Reference Compounds: [^125I]-AB-MECA and [^3H]CCPA are both obtained from Amersham Biosciences (Little Chalfont, UK). IB-MECA are obtained from Tocris (Bristol, UK) and N6-cyclopentyl adenosine (CPA) is obtained from Sigma-Alrich (Poole, UK). Cell culture media, G418 and hygromycin are obtained from Invitrogen (Paisley, UK). Fetal calf serum is obtained from Perbio Science (Cheshire, UK). All other reagents are obtained from Fisher Chemicals (Loughborough, UK).
The method followed is that of Yates L, Clark J H, Martin T J, James S, Broadley K J, Kidd E J. Radioligand binding and functional responses of ligands for human recombinant adenosine A3 receptors. Auton Autacoid Pharmacol. 2006; 26(2):191-200. Cells stably transfected with the human adenosine A3 or A1 receptor are grown in Dulbecco's modified Eagles medium with nutrient mixture F12 containing NaHCO3 and Glutamax. Media is supplemented with 10% fetal calf serum, geneticin (G418; 0.67 mg/mL), hygromycin (500 μg/mL) and adenosine deaminase (1 U/mL). Cells are maintained at 37° C. with 5% CO2 in air. Cells are harvested and homogenized in ice-cold Tris buffer [50 mM Tris, 150 mM NaCl, 1 mM ethylenediaminetetraacetic acid (EDTA), pH 7.4] supplemented with the peptidase inhibitors, 4-(2-aminoethyl)benzenesulfonylfluoride (1 mM) and bacitracin (0.1 mg/mL), using a Polytron homogenizer (3×10 s bursts). The homogenate was spun for 10 min (4° C.) at 500 g. The supernatant is retained and the pellet is re-suspended in the buffer, homogenized and spun as above. The combined supernatants are centrifuged for 15 min (4° C.) at 48,000 g. The resultant pellet is re-suspended in the buffer and centrifuged for a second time at 48,000 g. The membrane pellet is then suspended in Tris buffer containing no peptidase inhibitors or adenosine deaminase and stored at −80° C. at a protein concentration of 1 mg/mL.
Binding Assays: Radioligand-binding assays were performed using the adenosine A3 receptor agonist [^125I]-AB-MECA and the A1 receptor agonist [^3H]CCPA. Binding assays were conducted in a total volume of 100 μL containing a 50 mM Tris, pH 7.4 buffer with or without 10 mM MgCl2, 20 μg membranes and either 0.15 nM [^125I]-AB-MECA (for the A3 receptor) or 1 nM [^3H]CCPA (for the A1 receptor). Assays were conducted at room temperature for 60 min (A1 receptor) or 120 min (A3 receptor) and terminated by the addition of 2 ml of ice-cold wash buffer (50 mM Tris, pH 7.4 with or without 10 mM MgCl2) and rapid filtration over 0.03% polyethylenimine-treated Whatman GF/C filters using a Brandel cell harvester (Semat International Ltd., St Albans, UK). Filters were then washed three times with 2 ml of ice-cold buffer. The filter-bound radioactivity were counted using a Compugamma counter (LKB Wallac, Turku, Finland). Competition experiments were performed to investigate the ability of reference compounds and embodiments of the invention to inhibit [^125I]-AB-MECA binding. Non-specific binding were determined using the respective compound at its highest concentration.
Data Analysis: The Kd and Bmax values for binding data were calculated based upon the molar amounts of bound and free [^125I]-AB-MECA. […] IC50 and Ki values and Hill slopes for inhibition of the radioligand binding by the compounds of the invention were calculated from the ligand competition curves using the Excel spreadsheet and the Kd value calculated for either [^125I]-AB-MECA or [^3H]CCPA. The results were expressed as a percent of control specific binding and as a percent inhibition of control specific binding obtained in the presence of the compounds of the invention. The IC50 values (concentration causing a half-maximal inhibition of control specific binding) and Hill coefficients (nH) were determined by non-linear regression analysis of the competition curves generated with mean replicate values using Hill equation curve fitting: […]

Sequence of human adenosine A3 receptor (P0DMS8 whole entry): as above

What is called EC50 is the concentration that produces a half-maximal response. What is called Ki is a dissociation constant, usually derived from enzyme kinetics or from competition with a known ligand. As for `CNC(=O)[C@@]12C[C@@H]1[C@@H](n1cnc3c(NCC(F)F)cc(Cl)nc31)[C@H](O)[C@@H]2O` [Compound 82], on ADORA3, the EC50 was 1.9 nM and the “Cell Calcium Efficacy (%)” value came to 106%. In addition, in assay [1], the inhibition constant (Ki) was 4.77 nM.

For `O[C@@H]1[C@H](O)[C@@H]2C[C@@H]2[C@H]1n1cnc2c(NC3CCC3)cc(Cl)nc21` [Compound 44, (1R,2R,3S,4R,5S)-4-(5-chloro-7-(cyclobutylamino)-3H-imidazo[4,5-b]pyridin-3-yl)bicyclo[3.1.0]hexane-2,3-diol], at ADORA3, the EC50 was 23.1 nM and the “Cell Calcium Efficacy (%)” value stood at 52%. In assay [1], the Ki turned out to be 28.4 nM.

`CCNc1c(Cl)c(Cl)nc2c1ncn2[C@H]1[C@H](O)[C@H](O)[C@@H]2C[C@@H]21` [Compound 71, (1R,2R,3S,4R,5S)-4-(5,6-dichloro-7-(ethylamino)-3H-imidazo[4,5-b]pyridin-3-yl)bicyclo[3.1.0]hexane-2,3-diol]: in assay [1], the Ki came out at 456 nM.

Take `CNC(=O)C12C[C@@H]1[C@@H](n1cnc3c(NCC4CCC4)cc(Cl)nc31)[C@H](O)[C@@H]2O` (stereo in doubt) [Compound 65, (1S,2R,3S,4R,5S)-4-(5-chloro-7-((cyclobutylmethyl)amino)-3H-imidazo[4,5-b]pyridin-3-yl)-2,3-dihydroxy-N-methylbicyclo[3.1.0]hexane-1-carboxamide]: the Ki in assay [1] worked out at 3.49 nM.

Regarding `CCCNc1cc(Cl)nc2c1ncn2[C@H]1[C@H](O)[C@H](O)C2(C(=O)NC)C[C@H]12` (stereo in doubt) [Compound 64, (1S,2R,3S,4R,5S)-4-(5-chloro-7-(propylamino) 3H-imidazo[4,5-b]pyridin-3-yl)-2,3-dihydroxy-N-methylbicyclo[3.1.0]hexane-1-carboxamide], in assay [1], the Ki was 0.64 nM.

In the case of `CNC(=O)[C@@]12C[C@@H]1[C@@H](n1cnc3c(NCCO)cc(Cl)nc31)[C@H](O)[C@@H]2O` [Compound 91, (1S,2R,3S,4R,5S)-4-(5-chloro-7-((2-hydroxyethyl)amino)-3H-imidazo[4,5-b]pyridin-3-yl)-2,3-dihydroxy-N-methylbicyclo[3.1.0]hexane-1-carboxamide], the inhibition constant (Ki) in assay [1] is 5.1 nM.

`Nc1c(OCc2cccc(Cl)c2)c(Cl)nc2c1ncn2[C@H]1[C@H](O)[C@H](O)[C@@H]2C[C@@H]21` [Compound 92, (1R,2R,3S,4R,5S)-4-(7-amino-5-chloro-6-((3-chlorobenzyl)oxy)-3H-imidazo[4,5-b]pyridin-3-yl)bicyclo[3.1.0]hexane-2,3-diol]: the Ki in assay [1] came out at 26.8 nM.

Regarding `CNC(=O)[C@@]12C[C@@H]1[C@@H](n1cnc3c(N)cc(Cl)nc31)[C@H](O)[C@@H]2O` [Compound 90, (1S,2R,3S,4R,5S)-4-(7-amino-5-chloro-3H-imidazo[4,5-b]pyridin-3-yl)-2,3-dihydroxy-N-methylbicyclo[3.1.0]hexane-1-carboxamide], the Ki in assay [1] came out at 2.42 nM.

`O[C@@H]1[C@H](O)[C@@H]2C[C@@H]2[C@H]1n1cnc2c(NCc3cc(F)ccc3F)cc(Cl)nc21` [Compound 45, (1R,2R,3S,4R,5S)-4-(5-chloro-7-((2,5-difluorobenzyl)amino)-3H-imidazo[4,5-b]pyridin-3-yl)bicyclo[3.1.0]hexane-2,3-diol]: at ADORA3, the EC50 is 29.5 nM and the “Cell Calcium Efficacy (%)” value turned out to be 22.5%. In assay [1], the Ki was 1.3 nM.

Regarding `O[C@@H]1[C@H](O)[C@@H]2C[C@@H]2[C@H]1n1cnc2c(NCC(F)F)c(F)c(Cl)nc21` [Compound 61, (1R,2R,3S,4R,5S)-4-(5-chloro-7-((2,2-difluoroethyl)amino)-6-fluoro-3H-imidazo[4,5-b]pyridin-3-yl)bicyclo[3.1.0]hexane-2,3-diol], on ADORA3, the EC50 worked out at 60 nM and the “Cell Calcium Efficacy (%)” value came out at 67.3%. In addition, in assay [1], the Ki stood at 7.15 nM.

`O[C@@H]1[C@H](O)[C@@H]2C[C@@H]2[C@H]1n1cnc2c(NCC3CCC3)cc(Cl)nc21` [Compound 67, (1R,2R,3S,4R,5S)-4-(5-chloro-7-((cyclobutylmethyl)amino)-3H-imidazo[4,5-b]pyridin-3-yl)bicyclo[3.1.0]hexane-2,3-diol]: the Ki in assay [1] worked out at 94.4 nM.

`CCNC(=O)[C@@]12C[C@@H]1[C@@H](n1cnc3c(NCC)cc(Cl)nc31)[C@H](O)[C@@H]2O` [Compound 69, (1S,2R,3S,4R,5S)-4-(5-chloro-7-(ethylamino)-3H-imidazo[4,5-b]pyridin-3-yl)-N-ethyl-2,3-dihydroxybicyclo[3.1.0]hexane-1-carboxamide]: in assay [1], the Ki came to 1.68 nM.

With `CCCNc1cc(Cl)nc2c1ncn2[C@H]1[C@H](O)[C@H](O)[C@@H]2C[C@@H]21` [Compound 66], the Ki in assay [1] was 126 nM.
